Experimental data reported in patent publication US20040044008A1, “Use of therapeutic benzamide derivatives” (priority 2000, published 2004).

Compared with `COc1ccc(-c2ccccc2C(=O)Nc2ccc(N3CCN(Cc4cccc(C#N)c4)CC3)cc2)cc1`, `N#Cc1cccc(CN2CCN(c3ccc(NC(=O)c4ccccc4-c4ccc(F)cc4)cc3)CC2)c1` [Example 23, 4′-Fluoro-biphenyl-2-carboxylic acid [4-[4-(3-cyano-benzyl)-piperazin-1-yl]-phenyl]-amide] is higher in melting point: 124 to 128 °C for the first, 200 to 202 °C for the second.

First: Cc1ccc(-c2ccccc2C(=O)Nc2ccc(N3CCN(Cc4cccc(C#N)c4)CC3)cc2)cc1C
Second: Cc1ccc(-c2ccccc2C(=O)Nc2ccc(N3CCN(Cc4cccc(C#N)c4)CC3)cc2)c(C)c1
The melting point of the first is higher: 140 to 144 °C for the first, 72 to 76 °C for the second.

First: O=C(Nc1ccc(N2CCN(Cc3ccncc3)CC2)cc1)c1ccccc1-c1ccc(C(F)(F)F)cc1
Second: O=C(Nc1ccc(N2CCN(Cc3cccc(F)c3)CC2)cc1)c1ccccc1-c1ccc(C(F)(F)F)cc1 (hydrate or solvate) [Example 53, 4′-Trifluoromethyl-biphenyl-2-carboxylic acid [4-[4-(3-fluoro-benzyl)-piperazin-1-yl]-phenyl]-amide]
The melting point of the first is higher: 194 to 196 °C for the first, 189 to 190.5 °C for the second.

Compared with `N#Cc1cccc(CN2CCN(c3ccc(NC(=O)c4ccccc4-c4ccccc4)cc3)CC2)c1` (hydrate or solvate) [Example 11, Biphenyl-2-carboxylic acid [4-[4-(3-cyano-benzyl)-piperazin-1-yl]-phenyl]-amide], `N#Cc1cccc(CN2CCN(c3ccc(NC(=O)c4ccccc4Oc4ccccc4)cc3)CC2)c1` (hydrate or solvate) [Example 14, N-[4-[4-(3-Cyano-benzyl)-piperazin-1-yl]-phenyl]-2-phenoxy-benzamide] is lower in melting point: 169 to 171 °C for the first, 133 to 134 °C for the second.

Compared with `COc1cccc(CN2CCN(c3ccc(NC(=O)c4ccccc4-c4ccc(C(F)(F)F)cc4)cc3)CC2)c1` (hydrate or solvate) [Example 51, 4′-Trifluoromethyl-biphenyl-2-carboxylic acid [4-[4-(3-methoxy-benzyl)-piperazin-1-yl]-phenyl]-amide], `COc1ccc(C(=O)Nc2ccc(N3CCN(Cc4cccc(C#N)c4)CC3)cc2)c(-c2ccc(C(F)(F)F)cc2)c1` [Example 17, 5-Methoxy-4′-trifluoromethyl-biphenyl-2-carboxylic acid [4-[4-(3-cyano-benzyl)-piperazin-1-yl]-phenyl]-amide] is lower in melting point: 168 to 170 °C for the first, 160 to 164 °C for the second.

First: O=C(Nc1ccc(N2CCN(Cc3ccccn3)CC2)cc1)c1ccccc1-c1ccc(C(F)(F)F)cc1 (hydrate or solvate) [Example 57, 4′-Trifluoromethyl-biphenyl-2-carboxylic acid [4-(4-pyridin-2-ylmethyl-piperazin-1-yl)-phenyl]-amide]
Second: O=C(Nc1ccc(N2CCN(Cc3nccs3)CC2)cc1)c1ccccc1-c1ccc(C(F)(F)F)cc1 (hydrate or solvate) [Example 59, 4′-Trifluoromethyl-biphenyl-2-carboxylic acid [4-(4-thiazol-2-ylmethyl-piperazin-1-yl)-phenyl]-amide]
The melting point of the first is lower: 168 to 170 °C for the first, 187 to 189 °C for the second.

Compared with `CC(C)c1ccc(-c2cc(Cl)ccc2C(=O)Nc2ccc(N3CCN(Cc4cccc(C#N)c4)CC3)cc2)cc1` [Example 7, 5-Chloro-4′-isopropyl-biphenyl-2-carboxylic acid [4-[4-(3-cyano-benzyl)-piperazin-1-yl]-phenyl]-amide], `CC(C)c1ccc(-c2ccccc2C(=O)Nc2ccc(N3CCN(Cc4cccc(C#N)c4)CC3)cc2)cc1` [Example 16, 4′-Isopropyl-biphenyl-2-carboxylic acid [4-[4-(3-cyano-benzyl)-piperazin-1-yl]-phenyl]-amide] is lower in melting point: 188 to 190 °C for the first, 133 to 135 °C for the second.

First: COc1cccc(C(=O)Nc2ccc(N3CCN(Cc4cccc(C#N)c4)CC3)cc2)c1-c1ccc(C(F)(F)F)cc1 [Example 8, 6-Methoxy-4′-trifluoromethyl-biphenyl-2-carboxylic acid [4-[4-(3-cyano-benzyl)-piperazin-1-yl]-phenyl]-amide]
Second: COc1ccc(-c2ccc(C(F)(F)F)cc2)c(C(=O)Nc2ccc(N3CCN(Cc4cccc(C#N)c4)CC3)cc2)c1 [Example 19, 4-Methoxy-4′-trifluoromethyl-biphenyl-2-carboxylic acid [4-[4-(3-cyano-benzyl)-piperazin-1-yl]-phenyl]-amide]
The melting point of the first is higher: 215 to 217 °C for the first, 151 to 155 °C for the second.

First: Cc1ccc(C(=O)Nc2ccc(N3CCN(Cc4cccc(C#N)c4)CC3)cc2)c(-c2ccc(C(F)(F)F)cc2)c1 [Example 9, 5-Methyl-4′-trifluoromethyl-biphenyl-2-carboxylic acid [4-[4-(3-cyano-benzyl)-piperazin-1-yl]-phenyl]-amide]
Second: Cc1ccc(-c2ccc(C(F)(F)F)cc2)c(C(=O)Nc2ccc(N3CCN(Cc4cccc(C#N)c4)CC3)cc2)c1 [Example 18, 4-Methyl4′-trifluoromethyl-biphenyl-2-carboxylic acid [4-[4-(3-cyano-benzyl)-piperazin-1-yl]-phenyl]-amide]
The melting point of the first is higher: 166 to 168 °C for the first, 120 to 124 °C for the second.

First: N#Cc1cccc(CN2CCN(c3ccc(NC(=O)c4ccc(Cl)cc4-c4ccc(C(F)(F)F)cc4)cc3)CC2)c1 [Example 10, 5-Chloro-4′-trifluoromethyl-biphenyl-2-carboxylic acid [4-[4-(3-cyano-benzyl)-piperazin-1-yl]-phenyl]-amide]
Second: N#Cc1cccc(CN2CCN(c3ccc(NC(=O)c4ccccc4-c4cccc(C(F)(F)F)c4)cc3)CC2)c1 [Example 22, 3′-Trifluoromethyl-biphenyl-2-carboxylic acid [4-[4-(3-cyano-benzyl)-piperazin-1-yl]-phenyl]-amide]
The melting point of the first is higher: 164 to 165 °C for the first, 117 to 121 °C for the second.

Compared with `COc1ccc(C(=O)Nc2ccc(N3CCN(Cc4cccc(C#N)c4)CC3)cc2)c(-c2ccccc2)c1` [Example 12, 5-Methoxy-biphenyl-2-carboxylic acid [4-[4-(3-cyano-benzyl)-piperazin-1-yl]-phenyl]-amide], `CCc1ccc(-c2ccccc2C(=O)Nc2ccc(N3CCN(Cc4cccc(C#N)c4)CC3)cc2)cc1` [Example 20, 4′-Ethyl-biphenyl-2-carboxylic acid [4-[4-(3-cyano-benzyl)-piperazin-1-yl]-phenyl]-amide] is lower in melting point: 159 to 161 °C for the first, 118 to 122 °C for the second.

First: COc1ccc(-c2ccccc2C(=O)Nc2ccc(N3CCN(Cc4cccc(C#N)c4)CC3)cc2)cc1OC [Example 26, 3′,4′-Dimethoxy-biphenyl-2-carboxylic acid [4-[4-(3-cyano-benzyl)-piperazin-1-yl]-phenyl]-amide]
Second: COc1cccc(C(=O)Nc2ccc(N3CCN(Cc4cccc(C#N)c4)CC3)cc2)c1OCCc1ccccc1 [Example 30, N-[4-[4-(3-Cyano-benzyl)-piperazin-1-yl]-phenyl]-3-methoxy-2-phenethyloxy-benzamide]
The melting point of the first is lower: 116 to 120 °C for the first, 140 to 142 °C for the second.

Compared with `COc1cccc(C(=O)Nc2ccc(N3CCN(Cc4cccc(C#N)c4)CC3)cc2)c1OCc1ccc(F)cc1` [Example 29, N-[4-[4-(3-Cyano-benzyl)-piperazin-1-yl]-phenyl]-2-(4-fluoro-benzyloxy)-3-methoxy-benzamide], `COc1cccc(C(=O)Nc2ccc(N3CCN(Cc4cccc(C#N)c4)CC3)cc2)c1OCCCc1ccccc1` [Example 33, N-[4-[4-(3-Cyano-benzyl)-piperazin-1-yl]-phenyl]-3-methoxy-2-(3-phenyl-propoxy)-benzamide] is higher in melting point: 118 to 120 °C for the first, 134 to 136 °C for the second.

Compared with `COc1cccc(C(=O)Nc2ccc(N3CCN(Cc4cccc(C#N)c4)CC3)cc2)c1OCCC1CCCCC1` [Example 31, N-[4-[4-(3-Cyano-benzyl)-piperazin-1-yl]-phenyl]-2-(2-cyclohexyl-ethoxy)-3-methoxy-benzamide], `N#Cc1cccc(CN2CCN(c3ccc(NC(=O)c4ccccc4OCCC4CCCCC4)cc3)CC2)c1` [Example 32, N-[4-[4-(3-Cyano-benzyl)-piperazin-1-yl]-phenyl]-2-(2-cyclohexyl-ethoxy)-benzamide] is higher in melting point: 102 to 104 °C for the first, 119 to 121 °C for the second.

First: Cc1cccc(C(=O)Nc2ccc(N3CCN(CC(N)=O)CC3)cc2)c1-c1ccc(C(F)(F)F)cc1 [Example 40, 6-Methyl4′-trifluoromethyl-biphenyl-2-carboxylic acid [4-(4-carbamoylmethyl-piperazin-1-yl)-phenyl]-amide]
Second: CCOC(=O)CN1CCN(c2ccc(NC(=O)c3ccccc3-c3ccc(C(F)(F)F)cc3)cc2)CC1 [Example 42, 4′-Trifluoromethyl-biphenyl-2-carboxylic acid [4-(4-ethoxycarbonylmethyl-piperazin-1-yl)-phenyl]-amide]
The melting point of the first is higher: 196 to 198 °C for the first, 167 to 169 °C for the second.

First: N#CCN1CCN(c2ccc(NC(=O)c3ccccc3-c3ccc(C(F)(F)F)cc3)cc2)CC1 [Example 41, 4′-Trifluoromethyl-biphenyl-2-carboxylic acid [4-(4-cyanomethyl-piperazin-1-yl]-phenyl]-amide]
Second: O=C(Nc1ccc(N2CCN(CCCO)CC2)cc1)c1ccccc1-c1ccc(C(F)(F)F)cc1 [Example 44, 4′-Trifluoromethyl-biphenyl-2-carboxylic acid [4-(4-(3-hydroxy-propyl)-piperazin-1-yl]-phenyl]-amide]
The melting point of the first is higher: 244 to 246 °C for the first, 208 to 210 °C for the second.

Compared with `CCOCCN1CCN(c2ccc(NC(=O)c3ccccc3-c3ccc(C(F)(F)F)cc3)cc2)CC1` [Example 43, 4′-Trifluoromethyl-biphenyl-2-carboxylic acid [4-(4-(2-ethoxy-ethyl)-piperazin-1-yl]-phenyl]-amide], `O=C(Nc1ccc(N2CCN(CCCC(F)(F)F)CC2)cc1)c1ccccc1-c1ccc(C(F)(F)F)cc1` [Example 45, 4′-Trifluoromethyl-biphenyl-2-carboxylic acid [4-(4-(4,4,4-trifluoro-butyl)-piperazin-1-yl]-phenyl]-amide] is higher in melting point: 176 to 178 °C for the first, 198 to 200 °C for the second.

Work on `CC(C)=CCN1CCN(c2ccc(NC(=O)c3ccccc3-c3ccc(C(F)(F)F)cc3)cc2)CC1` [Example 46, 4′-Trifluoromethyl-biphenyl-2-carboxylic acid [4-(4-(3-methyl-but-2-enyl)-piperazin-1-yl]-phenyl]-amide] yielded a melting point of 203 to 205 °C.
